Source: ChEMBL document CHEMBL1201862, “PubChem BioAssay data set” (2004)
The source made the active and inactive calls. For most assays here, no stated cut-off is given here; in the data, actives have a measured IC50 and inactives only a lower limit.

Legend:
[1] = target: 26S proteasome non-ATPase regulatory subunit 14 (Homo sapiens, UniProt O00487); test: inhibition of proteasome subunit RPN11 – biochemical, fluorescence polarization, uHTS hits, confirmation (AID 602368); type: functional
[2] = target: 72 kDa type IV collagenase (Homo sapiens, UniProt P08253); test: Dose Response validation of uHTS RPN11 inhibitor hits using a MMP-2 Fluorescence assay.; type: functional
Chain of 72 kDa type IV collagenase (P08253 whole entry): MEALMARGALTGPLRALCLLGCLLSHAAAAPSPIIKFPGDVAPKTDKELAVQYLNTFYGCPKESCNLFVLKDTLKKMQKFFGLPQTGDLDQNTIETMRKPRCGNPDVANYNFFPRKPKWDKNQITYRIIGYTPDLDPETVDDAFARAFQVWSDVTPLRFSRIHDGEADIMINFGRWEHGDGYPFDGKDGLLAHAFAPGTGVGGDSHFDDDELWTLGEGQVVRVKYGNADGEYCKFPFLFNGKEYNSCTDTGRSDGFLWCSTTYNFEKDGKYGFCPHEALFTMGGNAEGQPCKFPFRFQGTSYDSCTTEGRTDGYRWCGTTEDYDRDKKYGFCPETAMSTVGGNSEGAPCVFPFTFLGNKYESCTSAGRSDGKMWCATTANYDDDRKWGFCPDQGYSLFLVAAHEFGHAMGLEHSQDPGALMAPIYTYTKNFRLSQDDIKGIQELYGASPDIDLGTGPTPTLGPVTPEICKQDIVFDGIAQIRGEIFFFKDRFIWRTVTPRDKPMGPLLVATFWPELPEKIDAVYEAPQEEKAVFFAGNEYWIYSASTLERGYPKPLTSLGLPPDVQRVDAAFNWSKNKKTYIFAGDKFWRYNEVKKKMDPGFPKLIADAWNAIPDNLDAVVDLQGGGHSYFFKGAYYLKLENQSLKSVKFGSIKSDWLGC

Prothrombin = Prothrombin (Bos taurus, UniProt P00735); test: thrombin protease inhibitors – biochemical, fluorescence polarization, uHTS hits, dose response (AID 602369); type: functional
[3] = target: T1, Apoptotic protease-activating factor 1 (Homo sapiens, UniProt O14727); type: functional
T1 sequence (O14727 whole entry): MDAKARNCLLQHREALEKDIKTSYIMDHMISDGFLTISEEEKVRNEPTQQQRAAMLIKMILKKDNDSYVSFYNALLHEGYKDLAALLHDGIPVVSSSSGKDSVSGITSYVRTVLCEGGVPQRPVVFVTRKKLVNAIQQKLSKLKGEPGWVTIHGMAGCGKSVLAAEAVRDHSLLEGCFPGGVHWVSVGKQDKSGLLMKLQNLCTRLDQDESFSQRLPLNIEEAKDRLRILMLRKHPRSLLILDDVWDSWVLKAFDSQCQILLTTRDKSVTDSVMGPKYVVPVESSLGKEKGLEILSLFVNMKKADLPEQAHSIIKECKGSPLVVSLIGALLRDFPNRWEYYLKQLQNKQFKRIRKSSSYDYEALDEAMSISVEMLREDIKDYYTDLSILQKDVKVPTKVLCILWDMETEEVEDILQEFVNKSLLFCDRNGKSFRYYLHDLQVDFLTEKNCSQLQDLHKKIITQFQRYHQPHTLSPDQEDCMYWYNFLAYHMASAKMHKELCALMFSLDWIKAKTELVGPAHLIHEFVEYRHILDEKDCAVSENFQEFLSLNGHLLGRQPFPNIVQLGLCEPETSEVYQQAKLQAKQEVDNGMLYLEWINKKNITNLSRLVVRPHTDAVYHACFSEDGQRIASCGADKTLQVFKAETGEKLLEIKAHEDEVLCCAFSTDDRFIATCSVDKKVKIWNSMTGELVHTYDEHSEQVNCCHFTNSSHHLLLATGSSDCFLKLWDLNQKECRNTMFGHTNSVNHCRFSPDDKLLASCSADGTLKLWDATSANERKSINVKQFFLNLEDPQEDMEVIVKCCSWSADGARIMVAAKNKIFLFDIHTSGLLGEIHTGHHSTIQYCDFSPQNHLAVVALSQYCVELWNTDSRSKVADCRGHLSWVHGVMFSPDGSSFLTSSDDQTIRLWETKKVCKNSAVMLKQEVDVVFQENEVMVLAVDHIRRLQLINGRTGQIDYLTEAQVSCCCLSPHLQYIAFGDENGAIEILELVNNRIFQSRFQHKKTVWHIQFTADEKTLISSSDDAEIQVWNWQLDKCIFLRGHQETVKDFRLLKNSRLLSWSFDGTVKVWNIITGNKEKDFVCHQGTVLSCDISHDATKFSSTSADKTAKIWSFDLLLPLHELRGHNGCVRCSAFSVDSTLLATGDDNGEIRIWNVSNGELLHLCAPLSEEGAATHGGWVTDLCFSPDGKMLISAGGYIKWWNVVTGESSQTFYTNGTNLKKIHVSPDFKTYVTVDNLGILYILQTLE

INS1 = test: INS-1E survival protection against cytokine death – cell-based, luminescence, retest, dose response (AID 449756); type: functional; details: Rattus norvegicus;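 further: cell death triggered by IL-1 beta plus TNF-alpha plus IFN-gamma mixture; protective hits raise ATP signal compared with cytokine alone wells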
[4] = target: T2, Tyrosyl-DNA phosphodiesterase 2 (Homo sapiens, UniProt O95551); test: potency against TDP2 phosphodiesterase activity – biochemical, epi absorbance, IC50, dose response (AID 743297)
T2 sequence (O95551 whole entry): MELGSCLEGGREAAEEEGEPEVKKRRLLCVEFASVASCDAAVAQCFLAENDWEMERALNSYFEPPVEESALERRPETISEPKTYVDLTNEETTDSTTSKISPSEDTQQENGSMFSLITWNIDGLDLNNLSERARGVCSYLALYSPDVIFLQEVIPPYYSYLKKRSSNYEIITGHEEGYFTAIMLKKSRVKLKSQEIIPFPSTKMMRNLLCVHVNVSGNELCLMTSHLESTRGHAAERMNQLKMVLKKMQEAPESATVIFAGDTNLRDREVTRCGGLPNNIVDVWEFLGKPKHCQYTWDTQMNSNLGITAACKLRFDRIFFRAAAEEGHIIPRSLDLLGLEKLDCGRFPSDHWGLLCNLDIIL

Nonstructural protein 1 = Nonstructural protein 1 (Influenza A virus, UniProt Q194T2); type: functional, Influenza A virus (A/California/07/2009(H1N1))
Chain of Nonstructural protein 1 (Q194T2 whole entry): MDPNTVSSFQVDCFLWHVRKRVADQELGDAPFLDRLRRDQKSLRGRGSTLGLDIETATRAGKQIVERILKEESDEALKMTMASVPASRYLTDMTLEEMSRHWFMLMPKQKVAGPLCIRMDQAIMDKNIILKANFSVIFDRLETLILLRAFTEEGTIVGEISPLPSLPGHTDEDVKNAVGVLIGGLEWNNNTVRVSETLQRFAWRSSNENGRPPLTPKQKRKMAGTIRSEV

Caspase-3 [5] = target: T3, Caspase-3 (Homo sapiens, UniProt P42574); type: functional
T3 sequence (P42574 whole entry): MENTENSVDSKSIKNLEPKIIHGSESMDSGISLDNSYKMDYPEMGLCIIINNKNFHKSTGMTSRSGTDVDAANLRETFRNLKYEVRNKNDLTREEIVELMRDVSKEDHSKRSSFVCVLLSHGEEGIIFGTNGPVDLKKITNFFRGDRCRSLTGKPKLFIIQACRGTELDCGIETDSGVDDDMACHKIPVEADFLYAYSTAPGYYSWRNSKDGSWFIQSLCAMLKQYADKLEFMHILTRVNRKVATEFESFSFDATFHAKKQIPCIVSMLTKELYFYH

[6] = target: T4, Sentrin-specific protease 7 (Homo sapiens, UniProt Q9BQF6); type: functional;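 further: Luminescence-based dose-response confirmation of ultra-high-throughput screening hits, measuring inhibition of SENP7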
T4 sequence (Q9BQF6 whole entry): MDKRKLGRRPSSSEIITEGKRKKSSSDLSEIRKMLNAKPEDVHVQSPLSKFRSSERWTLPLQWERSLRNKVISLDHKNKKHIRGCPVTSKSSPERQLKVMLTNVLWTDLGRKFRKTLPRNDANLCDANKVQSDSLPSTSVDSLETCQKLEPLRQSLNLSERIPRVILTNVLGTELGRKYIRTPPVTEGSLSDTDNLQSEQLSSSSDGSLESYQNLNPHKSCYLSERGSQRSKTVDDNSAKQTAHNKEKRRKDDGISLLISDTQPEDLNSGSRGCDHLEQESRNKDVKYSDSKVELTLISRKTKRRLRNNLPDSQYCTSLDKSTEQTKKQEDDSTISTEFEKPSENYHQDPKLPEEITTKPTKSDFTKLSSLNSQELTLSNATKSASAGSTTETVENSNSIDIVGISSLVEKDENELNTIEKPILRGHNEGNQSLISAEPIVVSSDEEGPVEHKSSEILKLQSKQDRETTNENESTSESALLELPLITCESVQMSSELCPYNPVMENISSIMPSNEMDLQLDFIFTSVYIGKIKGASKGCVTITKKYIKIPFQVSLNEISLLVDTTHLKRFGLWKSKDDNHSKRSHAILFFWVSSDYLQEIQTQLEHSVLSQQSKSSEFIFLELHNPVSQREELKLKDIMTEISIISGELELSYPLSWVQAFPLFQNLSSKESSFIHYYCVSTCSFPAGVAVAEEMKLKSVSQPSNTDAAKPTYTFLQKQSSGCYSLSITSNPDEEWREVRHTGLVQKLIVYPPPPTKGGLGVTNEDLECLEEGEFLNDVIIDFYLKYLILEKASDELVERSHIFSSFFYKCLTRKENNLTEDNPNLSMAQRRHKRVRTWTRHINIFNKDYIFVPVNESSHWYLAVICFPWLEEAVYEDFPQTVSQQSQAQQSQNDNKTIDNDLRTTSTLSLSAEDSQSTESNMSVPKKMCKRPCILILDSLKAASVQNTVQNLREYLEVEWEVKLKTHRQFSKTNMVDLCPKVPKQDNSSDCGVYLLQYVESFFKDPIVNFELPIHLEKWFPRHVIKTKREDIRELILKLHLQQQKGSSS

[7] = target: T5, Sentrin-specific protease 6 (Homo sapiens, UniProt Q9GZR1); type: functional
T5 sequence (Q9GZR1 whole entry): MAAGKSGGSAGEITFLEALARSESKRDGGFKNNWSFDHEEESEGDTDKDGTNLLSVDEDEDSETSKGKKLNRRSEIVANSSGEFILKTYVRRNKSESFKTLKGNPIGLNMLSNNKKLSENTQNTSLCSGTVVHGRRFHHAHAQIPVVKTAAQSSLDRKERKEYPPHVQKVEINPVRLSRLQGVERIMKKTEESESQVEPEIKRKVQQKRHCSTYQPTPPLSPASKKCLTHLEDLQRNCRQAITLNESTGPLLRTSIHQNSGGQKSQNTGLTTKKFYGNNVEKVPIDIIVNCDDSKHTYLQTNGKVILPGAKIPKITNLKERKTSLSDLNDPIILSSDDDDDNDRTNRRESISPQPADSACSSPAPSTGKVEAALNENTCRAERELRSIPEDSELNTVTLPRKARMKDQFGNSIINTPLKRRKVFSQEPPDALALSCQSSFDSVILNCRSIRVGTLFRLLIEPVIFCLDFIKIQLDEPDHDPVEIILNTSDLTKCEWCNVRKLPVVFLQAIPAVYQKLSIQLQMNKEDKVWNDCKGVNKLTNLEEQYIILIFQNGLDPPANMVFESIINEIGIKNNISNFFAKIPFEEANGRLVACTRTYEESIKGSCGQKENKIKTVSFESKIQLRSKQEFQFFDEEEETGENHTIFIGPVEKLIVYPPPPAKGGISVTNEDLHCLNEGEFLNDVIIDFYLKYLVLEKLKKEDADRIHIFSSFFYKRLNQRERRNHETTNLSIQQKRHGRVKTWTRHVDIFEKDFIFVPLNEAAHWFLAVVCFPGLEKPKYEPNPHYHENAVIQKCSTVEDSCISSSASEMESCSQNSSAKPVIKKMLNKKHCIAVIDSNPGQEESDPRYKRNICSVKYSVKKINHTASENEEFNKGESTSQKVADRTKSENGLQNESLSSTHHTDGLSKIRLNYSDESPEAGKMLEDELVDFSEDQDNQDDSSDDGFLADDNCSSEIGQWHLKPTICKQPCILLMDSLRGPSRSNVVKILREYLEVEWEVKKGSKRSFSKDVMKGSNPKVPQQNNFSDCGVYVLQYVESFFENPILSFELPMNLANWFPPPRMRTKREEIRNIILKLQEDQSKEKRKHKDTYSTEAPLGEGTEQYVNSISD

[8] = target: T6, Sentrin-specific protease 8 (Homo sapiens, UniProt Q96LD8); type: functional;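 further: luminescence read-out of SENP8 inhibition, dose-response confirmation following an ultra-high-throughput screen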
T6 sequence (Q96LD8 whole entry): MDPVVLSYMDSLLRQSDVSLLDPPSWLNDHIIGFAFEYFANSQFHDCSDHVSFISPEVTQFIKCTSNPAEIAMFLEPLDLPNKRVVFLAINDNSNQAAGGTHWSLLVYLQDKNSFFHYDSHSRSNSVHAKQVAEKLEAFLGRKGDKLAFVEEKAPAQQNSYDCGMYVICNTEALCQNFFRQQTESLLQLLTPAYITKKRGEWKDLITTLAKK

[9] = target: T6, Sentrin-specific protease 8; test: inhibition of human SENP8 cleavage activity – biochemical, luminescence, SAR follow-up (AID 504501); type: functional
Caspase-3 [10] = target: T3, Caspase-3; test: SAR Analysis of small molecule inhibitors of Sentrin-specific proteases (SENPs) using a Caspase-3 Selectivity assay. [Related pubchem assays (depositor defined):AID2540, AID2599, AID434973, AID489001]; type: functional
[11] = target: T5, Sentrin-specific protease 6; test: SAR Analysis of small molecule inhibitors of Sentrin-specific protease 6 (SENP6) using a Luminescent assay. [Related pubchem assays (depositor defined):AID2582, AID2599]; type: functional
[12] = target: T4, Sentrin-specific protease 7; test: inhibition of human SENP7 cleavage activity – biochemical, luminescence, SAR follow-up (AID 504497); type: functional
[13] = target: Induced myeloid leukemia cell differentiation protein Mcl-1 (Homo sapiens, UniProt Q07820); type: functional
Chain of Induced myeloid leukemia cell differentiation protein Mcl-1 (Q07820 whole entry): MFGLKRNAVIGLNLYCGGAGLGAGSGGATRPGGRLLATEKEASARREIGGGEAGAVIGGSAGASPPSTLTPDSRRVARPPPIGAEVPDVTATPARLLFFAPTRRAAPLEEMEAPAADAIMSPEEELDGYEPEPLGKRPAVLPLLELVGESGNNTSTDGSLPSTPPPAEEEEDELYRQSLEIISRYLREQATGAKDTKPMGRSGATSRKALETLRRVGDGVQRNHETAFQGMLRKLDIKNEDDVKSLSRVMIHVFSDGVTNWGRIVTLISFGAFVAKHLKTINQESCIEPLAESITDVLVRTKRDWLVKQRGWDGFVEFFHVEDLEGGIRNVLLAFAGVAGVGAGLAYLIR

[14] = target: Glucose-6-phosphate 1-dehydrogenase (Homo sapiens, UniProt P11413); test: inhibition of Homo sapiens G6PD, dose series – biochemical, fluorescence, selectivity assay for P. falciparum G6PD inhibitor project, dose response (AID 504792); type: functional
Chain of Glucose-6-phosphate 1-dehydrogenase (P11413 whole entry): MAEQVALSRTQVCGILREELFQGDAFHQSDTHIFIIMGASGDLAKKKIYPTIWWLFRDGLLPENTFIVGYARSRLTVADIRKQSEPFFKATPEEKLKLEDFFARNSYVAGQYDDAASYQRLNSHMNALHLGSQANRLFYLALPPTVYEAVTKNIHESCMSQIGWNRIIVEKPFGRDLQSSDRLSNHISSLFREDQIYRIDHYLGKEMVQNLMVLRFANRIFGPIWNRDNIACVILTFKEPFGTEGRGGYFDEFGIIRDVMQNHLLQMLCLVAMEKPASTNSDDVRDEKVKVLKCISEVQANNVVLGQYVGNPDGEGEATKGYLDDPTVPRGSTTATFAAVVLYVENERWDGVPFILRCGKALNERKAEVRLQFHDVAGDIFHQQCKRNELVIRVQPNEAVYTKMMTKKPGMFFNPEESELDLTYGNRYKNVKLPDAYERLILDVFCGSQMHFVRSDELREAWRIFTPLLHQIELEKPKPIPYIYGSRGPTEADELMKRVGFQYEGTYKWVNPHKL

Vero = test: viability of Vero cells under compound – cytotoxicity control for flavivirus capping enzyme inhibitors (AID 588742); type: functional; details: Chlorocebus sabaeus
Genome polyprotein = Genome polyprotein (dengue virus type 2, UniProt P29990); test: flavivirus cap methylation enzyme inhibition – biochemical, confirmation dose response, primary screen (AID 588689); type: functional
Chain of Genome polyprotein (P29990 2492-3391 limits assumed): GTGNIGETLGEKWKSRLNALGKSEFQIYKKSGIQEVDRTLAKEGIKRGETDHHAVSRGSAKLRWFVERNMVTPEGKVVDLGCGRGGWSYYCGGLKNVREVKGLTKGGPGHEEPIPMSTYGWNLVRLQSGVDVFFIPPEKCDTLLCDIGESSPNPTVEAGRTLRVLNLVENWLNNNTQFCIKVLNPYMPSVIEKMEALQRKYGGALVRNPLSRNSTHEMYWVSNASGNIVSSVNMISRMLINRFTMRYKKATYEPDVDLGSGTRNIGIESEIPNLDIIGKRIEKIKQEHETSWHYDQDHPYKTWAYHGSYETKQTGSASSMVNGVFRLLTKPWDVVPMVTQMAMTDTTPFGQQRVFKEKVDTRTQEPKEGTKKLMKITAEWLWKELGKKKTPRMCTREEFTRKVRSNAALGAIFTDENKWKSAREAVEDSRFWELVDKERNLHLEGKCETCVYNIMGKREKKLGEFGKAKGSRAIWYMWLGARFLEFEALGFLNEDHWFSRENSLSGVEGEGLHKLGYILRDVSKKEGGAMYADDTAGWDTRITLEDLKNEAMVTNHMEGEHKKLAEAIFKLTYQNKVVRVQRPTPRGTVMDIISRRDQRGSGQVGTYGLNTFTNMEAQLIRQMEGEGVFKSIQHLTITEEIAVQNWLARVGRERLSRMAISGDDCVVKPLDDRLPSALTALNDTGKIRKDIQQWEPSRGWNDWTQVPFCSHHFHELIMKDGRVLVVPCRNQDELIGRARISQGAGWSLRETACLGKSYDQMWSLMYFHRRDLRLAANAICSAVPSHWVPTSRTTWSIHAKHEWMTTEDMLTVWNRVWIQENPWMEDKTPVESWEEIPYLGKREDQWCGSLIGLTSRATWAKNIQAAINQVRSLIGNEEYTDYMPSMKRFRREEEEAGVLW

[15] = target: Hepatocyte nuclear factor 4-alpha (Homo sapiens, UniProt P41235); type: functional, cell-based;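 further: biochemical luminescence-based dose-response counterscreen measuring inhibition of HNF4 dimerization, run alongside a screen for blockers of ABHD5–perilipin-5 interaction; split luciferase complementation of HNF4 fusion proteins in cell lysate measuring dimerization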
Chain of Hepatocyte nuclear factor 4-alpha (P41235 whole entry, the tested form may be a part): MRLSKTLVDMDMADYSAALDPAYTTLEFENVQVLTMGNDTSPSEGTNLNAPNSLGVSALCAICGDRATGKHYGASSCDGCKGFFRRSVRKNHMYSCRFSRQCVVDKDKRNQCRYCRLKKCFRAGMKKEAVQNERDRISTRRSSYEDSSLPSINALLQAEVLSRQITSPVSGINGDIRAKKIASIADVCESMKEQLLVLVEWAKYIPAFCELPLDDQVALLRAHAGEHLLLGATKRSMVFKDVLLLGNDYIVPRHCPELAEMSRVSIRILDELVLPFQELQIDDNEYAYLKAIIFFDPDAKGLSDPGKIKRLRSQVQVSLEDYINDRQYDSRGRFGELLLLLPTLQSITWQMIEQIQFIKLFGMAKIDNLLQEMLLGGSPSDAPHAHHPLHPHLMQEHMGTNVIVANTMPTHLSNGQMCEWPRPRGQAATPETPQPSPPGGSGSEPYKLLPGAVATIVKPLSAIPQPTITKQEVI

Chain of 26S proteasome non-ATPase regulatory subunit 14 (O00487 whole entry): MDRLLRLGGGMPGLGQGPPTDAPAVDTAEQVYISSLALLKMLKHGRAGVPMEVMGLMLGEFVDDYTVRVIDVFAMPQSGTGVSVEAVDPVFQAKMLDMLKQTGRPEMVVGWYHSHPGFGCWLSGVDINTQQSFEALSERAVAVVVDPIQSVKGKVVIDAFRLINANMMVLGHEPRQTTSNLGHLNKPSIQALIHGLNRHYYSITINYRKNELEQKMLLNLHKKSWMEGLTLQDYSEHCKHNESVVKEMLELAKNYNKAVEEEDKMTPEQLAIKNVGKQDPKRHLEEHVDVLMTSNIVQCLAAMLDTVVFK

Structure (SMILES): CC(/C=C1\SC(=S)N(CCC(=O)Nc2cccc(C(=O)O)c2)C1=O)=C\c1ccccc1
- IC50 [1]: 47.4 µM (active)
- IC50 [2]: 64.9 µM (active)
- IC50 (Prothrombin): 73.5 µM (active)

Structure (SMILES): Nc1ccc2nn(-c3cccc4ccccc34)nc2c1
- IC50 [3]: 50 µM (active)
- AC50 (INS1): 12.6 µM (active)
- IC50 [4]: > 128 µM (inactive)

Structure (SMILES): COc1ccccc1N1CCN(C(c2cccs2)C(C)NS(=O)(=O)c2ccccc2)CC1 (stereo not drawn)
- IC50 [3]: 10 µM (active)

Structure (SMILES): CCCC(=O)NC(c1cccs1)c1cc([N+](=O)[O-])c2cccnc2c1O (stereo not drawn)
- IC50 (Nonstructural protein 1): 13.1 µM (active)
- IC50 [1]: 89.3 µM (active)
- IC50 [2]: 3.26 µM (active)
- IC50 (Prothrombin): 83.6 µM (active)

Structure (SMILES): O=C(Nc1nc2ccccc2s1)c1ccc(Cl)s1
- IC50 (Caspase-3 [5]): 10.5 µM (active)
- IC50 [6]: 2.16 µM (active)
- IC50 [7]: > 100 µM (inactive)
- IC50 [8]: 1.56 µM (active)
- IC50 [9]: 2.55 µM (active)
- IC50 (Caspase-3 [10]): 3.28 µM (active)
- IC50 [11]: 2.83 µM (active)
- IC50 [12]: 1.35 µM (active)

Structure (SMILES): COc1cc(OC)cc(C(=O)Nc2ccc3ccccc3c2)c1
- IC50 [9]: 7.8 µM (active)
- IC50 (Caspase-3 [10]): 8.7 µM (active)
- IC50 [11]: 7 µM (active)
- IC50 [12]: 2.86 µM (active)

Structure (SMILES): COc1cc(OC)cc(-c2noc(/C=C/c3ccccc3)n2)c1
- IC50 [9]: > 99 µM (inactive)
- IC50 (Caspase-3 [10]): 59 µM (active)
- IC50 [11]: > 99 µM (inactive)
- IC50 [12]: 21.4 µM (active)

Structure (SMILES): Cc1cc(C)c(S(=O)(=O)/N=C2/C=C(SCC(=O)O)C(=O)c3ccccc32)cc1C
- IC50 [13]: 7.55 µM (active)
- IC50 [14]: 30.2 µM (inactive)
- CC50 (Vero): 37.5 µM (active)
- IC50 [3]: 12.6 µM (active)
- IC50 (Genome polyprotein): > 100 µM (active)

Structure (SMILES): O=C(NC1CCCCC1)C(C1CC1)n1c(=O)c(-c2ccco2)nc2ccccc21 (stereo not drawn)
- IC50 [15]: 2.17 µM (active)
